melting point: 220 to 222 °C
SMILES: Clc1ccc(Nc2nnc(Cc3ccncc3)c3ncccc23)cc1
